# Results: article PMC140036 (BMC Pharmacology, 2003)
# Like-named read-outs stand apart in the source and are kept apart here.
# Legend:
# mouse μ opioid receptor [1] = target: T1, mouse μ opioid receptor (Mus musculus, UniProt P42866); experiment: cell-based; details: for Emax: HEK293, read-out: Max Inhibition
# mouse μ opioid receptor [2] = target: T1, mouse μ opioid receptor; experiment: biochemical; type: binding
# T1 sequence (P42866 whole entry): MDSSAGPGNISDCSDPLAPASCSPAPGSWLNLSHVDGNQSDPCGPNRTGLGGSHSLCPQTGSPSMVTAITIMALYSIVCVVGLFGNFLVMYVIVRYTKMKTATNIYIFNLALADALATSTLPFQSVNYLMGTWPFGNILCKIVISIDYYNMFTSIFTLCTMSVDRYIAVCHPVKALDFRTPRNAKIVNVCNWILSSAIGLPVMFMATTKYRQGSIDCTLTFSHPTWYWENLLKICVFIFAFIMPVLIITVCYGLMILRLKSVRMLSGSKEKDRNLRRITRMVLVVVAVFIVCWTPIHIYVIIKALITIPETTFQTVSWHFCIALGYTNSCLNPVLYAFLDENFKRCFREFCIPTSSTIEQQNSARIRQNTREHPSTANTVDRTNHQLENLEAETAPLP
smiles,measurement,setting,value
Oc1ccc2c(c1)[C@@]13CCCC[C@@]1(O)[C@@H](C2)N(CC1CCC1)CC3 [Butorphanol],IC50,mouse μ opioid receptor [1],3 ± 2 nM
same,Emax,mouse μ opioid receptor [1],58 ± 5%
C[C@H]1[C@H]2Cc3ccc(O)cc3[C@]1(C)CCN2CC1CC1 [Cyclazocine],IC50,mouse μ opioid receptor [1],21 ± 8 nM
same,Emax,mouse μ opioid receptor [1],37 ± 2%
same,Ki,mouse μ opioid receptor [2],0.22 ± 0.02 nM
C[C@@H](NC(=O)[C@@H](N)Cc1ccc(O)cc1)C(=O)NCC(=O)N(C)[C@@H](Cc1ccccc1)C(=O)NCCO [DAMGO],Max Inhibition,mouse μ opioid receptor [1],58 ± 5%
C[C@@]12CCCCC[C@@H](Cc3ccc(O)cc31)[C@@H]2N [Dezocine],IC50,mouse μ opioid receptor [1],1.3 ± 0.6 nM
same,Emax,mouse μ opioid receptor [1],43 ± 2%
C[C@H]1[C@H]2Cc3ccc(O)cc3[C@]1(C)CCN2C [Metazocine],IC50,mouse μ opioid receptor [1],2 ± 0.1 nM
same,Emax,mouse μ opioid receptor [1],41 ± 4%
C=CCN1CC[C@]23c4c5ccc(O)c4O[C@H]2[C@@H](O)C=C[C@H]3[C@H]1C5 [Nalorphine],IC50,mouse μ opioid receptor [1],2.7 ± 1.4 nM
same,Emax,mouse μ opioid receptor [1],50 ± 2%
C=C1C[C@H](C)[C@H]2[C@H]3Cc4ccc(O)cc4[C@@]2(CCN3CC2CCC2)C1 [Xorphanol],Max Inhibition,mouse μ opioid receptor [1],29 ± 2 ⊕⊕^## %
same,IC50,mouse μ opioid receptor [1]; read-out: IC50 ± SEM,3.4 ± 1.7 nM
